The record followed here is ChEMBL document CHEMBL1201862, “PubChem BioAssay data set” (2004).

Some test systems named below: SNB-19; HCT-15; OVCAR-5; IGROV-1; K562; SF-295; NCI-H460; SNB-75; NCI-H23; HCC 2998; SR; OVCAR-8; 786-0; CAKI-1; NCI-H522; MOLT-4; U-251; OVCAR-3; TK-10; NCI-H226.
What all share (experiment): DTP human tumour cell line panel, 48 h

The structures appear in SMILES notation.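 A five-concentration, 48-hour dose response in 96-well plates underlies each endpoint, interpolated linearly between surrounding concentrations. GI50 = concentration required for 50% inhibition of growth.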 Activity calls are given as the source filed them. No stated cut-off is given here; in the data, active = GI50 up to about 1.1 µM and inactive = higher.

On to `COc1ccc(OC)c2sc(N3C(=O)/C(=C/c4cccc([N+](=O)[O-])c4)N=C3c3ccccc3)nc12`, for which the GI50 in the assay on SNB-19 is > 100 µM (inactive); in the assay with HCT-15, 61.5 µM; in the assay with OVCAR-5 it was > 100 µM (inactive); in the assay on IGROV-1 it was 43.4 µM (inactive); with K562 it was 23.3 µM (inactive); in the assay with SF-295 it was 51.8 µM (inactive). The GI50 in the assay on NCI-H460 is 77.1 µM (inactive); in the assay with SNB-75, 42.7 µM (inactive); in the assay with NCI-H23, 86.7 µM (inactive); in the assay with HCC 2998, 45.5 µM (inactive); in the assay on SR, 23.7 µM (inactive); with OVCAR-8, 28.5 µM (inactive). Moreover, the GI50 was 49.7 µM (inactive) with 786-0; > 100 µM (inactive) with CAKI-1; 42.6 µM (inactive) in the assay with NCI-H522; 21.8 µM (inactive) in the assay on MOLT-4; 32 µM (inactive) with U-251; 35.6 µM (inactive) with OVCAR-3. Further, the GI50 in the assay on TK-10 was 74 µM (inactive).

For the compound `COC(=O)C[C@H](COCc1ccccc1)NC(=O)C[C@H](COCc1ccccc1)NC(=O)OC(C)(C)C`, the GI50 in the assay on SNB-19 is 21.2 µM (inactive); in the assay with HCT-15 it was 30.7 µM; in the assay on OVCAR-5, 33.8 µM (inactive); in the assay on IGROV-1, 33.7 µM (inactive); in the assay on K562 it was 40.2 µM (inactive); in the assay on SF-295, 34.1 µM (inactive). The GI50 in the assay on SNB-75 was 25.1 µM (inactive); in the assay with NCI-H23, 35.3 µM (inactive); with SR, 39.1 µM (inactive); in the assay on NCI-H226 it was > 100 µM (inactive); in the assay on OVCAR-8, 24.7 µM (inactive); with 786-0 it was 20.4 µM (inactive). The GI50 in the assay on CAKI-1 was 29.7 µM (inactive); in the assay on NCI-H522 it was 21.2 µM (inactive); in the assay on MOLT-4 it was 56 µM (inactive); in the assay on U-251, 27.9 µM (inactive); in the assay on OVCAR-3, 27.7 µM (inactive).

As to `CN(C)C(=O)OC1=CC2CCC(C1)N2C` (stereo not given), the GI50 is > 100 µM (inactive) in the assay on SNB-19; 48.3 µM with HCT-15; > 100 µM (inactive) in the assay on OVCAR-5; 71.4 µM (inactive) in the assay on IGROV-1; 88.7 µM (inactive) in the assay on K562; > 100 µM (inactive) in the assay on SF-295. The GI50 is 32.4 µM (inactive) with NCI-H460; > 100 µM (inactive) in the assay on SNB-75; > 100 µM (inactive) in the assay with NCI-H23; 47 µM (inactive) in the assay with SR; 0.685 µM (active) with NCI-H226; > 100 µM (inactive) with OVCAR-8. For the same compound, the GI50 in the assay on 786-0 is > 100 µM (inactive); with CAKI-1, > 100 µM (inactive); in the assay with NCI-H522 it was > 100 µM (inactive); in the assay with MOLT-4, 52.8 µM (inactive); in the assay on U-251, 87.3 µM (inactive); with OVCAR-3, > 100 µM (inactive). The GI50 with TK-10 was > 100 µM (inactive).

`NC1CNC(=O)c2c(Cl)sc(Cl)c21` (stereo not given): the GI50 in the assay with SNB-19 is > 100 µM (inactive); in the assay on HCT-15, greater than 100 µM; with OVCAR-5 it was > 100 µM (inactive); with IGROV-1, > 100 µM (inactive); in the assay on K562 it was > 100 µM (inactive); with SF-295 it was > 100 µM (inactive). Also, the GI50 in the assay with NCI-H460 is > 100 µM (inactive); in the assay on SNB-75 it was > 100 µM (inactive); in the assay with NCI-H23 it was > 100 µM (inactive); in the assay with HCC 2998, > 100 µM (inactive); with SR it was 41.4 µM (inactive); in the assay on NCI-H226 it was > 100 µM (inactive). In addition, the GI50 in the assay with OVCAR-8 is > 100 µM (inactive); in the assay with 786-0, > 100 µM (inactive); with CAKI-1, > 100 µM (inactive); in the assay on MOLT-4, 78.5 µM (inactive); in the assay with U-251, > 100 µM (inactive); in the assay with OVCAR-3 it was > 100 µM (inactive). Moreover, the GI50 with TK-10 is > 100 µM (inactive).

As for `CCCCCCCCCCOC(=O)c1cc[n+](C)cc1`, the GI50 in the assay on SNB-19 is 16.2 µM (inactive); in the assay on HCT-15 it was 15.9 µM; in the assay on OVCAR-5, 13.6 µM (inactive); in the assay on IGROV-1, 16.6 µM (inactive); in the assay with K562 it was 16.3 µM (inactive); in the assay with SF-295, 16.7 µM (inactive). Besides, the GI50 in the assay on NCI-H460 is 21 µM (inactive); in the assay with SNB-75, 19.3 µM (inactive); in the assay on NCI-H23, 19.9 µM (inactive); in the assay on SR, 16.3 µM (inactive); in the assay with NCI-H226 it was 18.1 µM (inactive); in the assay on OVCAR-8, 17.2 µM (inactive). The GI50 in the assay on 786-0 is 17.6 µM (inactive); in the assay with CAKI-1, 16.6 µM (inactive); with NCI-H522 it was 16.1 µM (inactive); in the assay on MOLT-4, 18.2 µM (inactive); with U-251 it was 15.7 µM (inactive); in the assay on OVCAR-3, 15.6 µM (inactive). In addition, the GI50 with TK-10 was 17.1 µM (inactive).

For the compound `O=C1Nc2ccc(Br)cc2/C1=N/Nc1ccc([N+](=O)[O-])cc1[N+](=O)[O-]`, the GI50 with SNB-19 is 4.71 µM (inactive); with HCT-15, 3.12 µM; with IGROV-1, 7.74 µM (inactive); with K562, 3.05 µM (inactive); in the assay with SF-295 it was 3.91 µM (inactive); with SNB-75, 4.1 µM (inactive). Besides, the GI50 in the assay on NCI-H23 is 2.49 µM (inactive); with HCC 2998, 10.2 µM (inactive); in the assay on SR it was 2.86 µM (inactive); with OVCAR-8, 3.93 µM (inactive); in the assay on 786-0, 2.77 µM (inactive); in the assay with CAKI-1, 13.9 µM (inactive). In addition, the GI50 in the assay with NCI-H522 was 2.42 µM (inactive); with MOLT-4, 3.44 µM (inactive); in the assay with U-251 it was 4.22 µM (inactive); with OVCAR-3, 5.82 µM (inactive); with TK-10, 17.1 µM (inactive).

As to `NCc1cccc(O)c1O`, the GI50 in the assay on SNB-19 was > 100 µM (inactive); in the assay with HCT-15 it was greater than 100 µM; in the assay on OVCAR-5, > 100 µM (inactive); with K562, > 100 µM (inactive); in the assay on SF-295, > 100 µM (inactive); with NCI-H460, > 100 µM (inactive). The GI50 with SNB-75, with SR, in the assay on NCI-H226, in the assay on OVCAR-8, in the assay with 786-0 and in the assay on CAKI-1 was > 100 µM (inactive) each time. For the same compound, the GI50 in the assay with NCI-H522, with MOLT-4, in the assay with U-251, with OVCAR-3 and with TK-10 was > 100 µM (inactive) each time.

For `O=C(/C(=N/Nc1ccccc1)c1ccc([N+](=O)[O-])cc1)c1ccc([N+](=O)[O-])cc1`, the GI50 with SNB-19 is > 100 µM (inactive); in the assay on HCT-15 it was 39 µM; in the assay on OVCAR-5, > 100 µM (inactive); in the assay with IGROV-1, > 100 µM (inactive); in the assay with K562, 64.4 µM (inactive); in the assay on SF-295 it was 32.1 µM (inactive). The GI50 with NCI-H460 was > 100 µM (inactive); in the assay on SNB-75 it was 85.5 µM (inactive); in the assay with NCI-H23 it was > 100 µM (inactive); with HCC 2998, > 100 µM (inactive); with SR, > 100 µM (inactive); with OVCAR-8 it was > 100 µM (inactive). The GI50 with 786-0 was > 100 µM (inactive); with CAKI-1, > 100 µM (inactive); in the assay with NCI-H522 it was 21.9 µM (inactive); in the assay with MOLT-4, > 100 µM (inactive); in the assay with U-251 it was > 100 µM (inactive); with OVCAR-3 it was > 100 µM (inactive). Besides, the GI50 in the assay on TK-10 was > 100 µM (inactive).

Turning to `O=c1[nH]nc(-c2ccccc2)n1/N=C/c1ccco1`, the GI50 in the assay on SNB-19 is > 100 µM (inactive); in the assay on HCT-15 it was greater than 100 µM; with OVCAR-5, > 100 µM (inactive); with IGROV-1 it was > 100 µM (inactive); with SF-295, > 100 µM (inactive); in the assay on NCI-H460 it was > 100 µM (inactive). The GI50 in the assay with SNB-75, in the assay on NCI-H23, in the assay on SR, in the assay on OVCAR-8, in the assay on 786-0 and in the assay on CAKI-1 was > 100 µM (inactive) throughout. Also, the GI50 in the assay on NCI-H522, with MOLT-4, with U-251, with OVCAR-3 and with TK-10 was > 100 µM (inactive) throughout.

As for `CC(C)C(=O)OCC1OC(n2c(Br)nc3c(=O)[nH]c(N)nc32)C(OC(=O)C(C)C)C1OC(=O)C(C)C` (stereo not given), the GI50 in the assay on SNB-19 is 81.8 µM (inactive); with HCT-15 it was greater than 100 µM; in the assay on OVCAR-5 it was 75.2 µM (inactive); with IGROV-1, > 10 µM (inactive); with SF-295, 21.2 µM (inactive); with NCI-H460 it was 23.7 µM (inactive). Further, the GI50 in the assay on SNB-75 was 83.9 µM (inactive); in the assay with SR, 38 µM (inactive); in the assay on NCI-H226 it was > 100 µM (inactive); with OVCAR-8 it was 31.4 µM (inactive); in the assay on 786-0, 23.1 µM (inactive); with NCI-H522, 35.2 µM (inactive). Also, the GI50 with MOLT-4 was 19.3 µM (inactive); in the assay with OVCAR-3, > 100 µM (inactive).

Consider `NCCCC[C@H](N)C(=O)Nc1ccc(-c2nc3ccccc3s2)cc1Cl`, for which the GI50 was 12.6 µM (inactive) in the assay on SNB-19; 5.68 µM in the assay with HCT-15; 0.34 µM (active) in the assay with OVCAR-5; < 0.01 µM (active) with IGROV-1; 2.74 µM (inactive) in the assay on K562; 5 µM (inactive) in the assay with SF-295. Moreover, the 50% growth inhibitory concentration (GI50) was 0.271 µM (active) with NCI-H460; 9.77 µM (inactive) with SNB-75; 0.681 µM (active) in the assay with HCC 2998; 2.36 µM (inactive) in the assay on SR; 7.71 µM (inactive) with OVCAR-8; 3.05 µM (inactive) in the assay on 786-0. For the same compound, the GI50 is 4.85 µM (inactive) in the assay on CAKI-1; 4.84 µM (inactive) in the assay on NCI-H522; 3 µM (inactive) in the assay on MOLT-4; 2.65 µM (inactive) in the assay on U-251; 0.247 µM (active) with OVCAR-3; 0.0353 µM (active) in the assay with TK-10.
